Test results as given in patent US20240059710A1, “KRAS G12D Inhibitors” (Jacobio Pharmaceuticals Co., Ltd., priority 2020, published 2024).
Like-named read-outs stand apart in the source and are kept apart here.

Experiments:
[1] = target: T1, GppNp-loaded HIS-KRAS (G12D, aa 1-169) / cRAF RBD (Homo sapiens, UniProt P01116, G12D); experiment: GTP-KRAS and cRAF interaction assay; format: binding; conditions: HTRF, 2 hours at 25° C.
T1 construct: GppNp-loaded HIS-KRAS (G12D, aa 1-169)
Experimental: 2. GTP-KRAS and cRAF Interaction Assay
GppNp-loaded HIS-KRAS (G12D, aa 1-169) was pre-incubated with a compound in the presence of 200 µM GTP in a 384-well plate (Greiner) for 15 min, then cRAF RBD (GST tag, aa 50-132, CreativeBioMart), MAb Anti GST-d2 (Cisbio) and MAb Anti 6HIS-Tb cryptate Gold (Cisbio) were added to the assay wells (Final concentration: 2.0 nM GppNp-loaded HIS-KRAS (G12D), 100 μM GTP, 35 nM cRAF RBD, 1 μg/mL MAb Anti GST-d2, 52.5 ng/mL MAb Anti 6HIS-Tb cryptate Gold) and incubated for 2 hours at 25° C. Wells containing same percent of DMSO served as vehicle control, and wells without KRAS served as low control. HTRF signals were read on Tecan Spark multimode microplate reader and HTRF ratios were calculated under manufacturer's instructions. The percent of activation of compounds treated wells were normalized between vehicle control and low control (% Activation=(HTRF ratioCompound treated−HTRF ratioLow control)/(HTRF ratioVehicle control−HTRF ratioLow control)*100). Then the data were analyzed either by fitting a 4-parameter logistic model or by Excel to calculate IC50 values.

[2] = target: T2, GDP-loaded HIS-KRAS (G12D, aa 1-169) (Homo sapiens, UniProt P01116, G12D); experiment: SOS1 catalyzed nucleotide exchange assay; format: biochemical; conditions: SOS1 ExD, TR-FRET, 4 hours at 25° C.
T2 construct: GDP-loaded HIS-KRAS (G12D, aa 1-169)
T2 sequence (P01116 1-169 isoform P01116-2 G12D): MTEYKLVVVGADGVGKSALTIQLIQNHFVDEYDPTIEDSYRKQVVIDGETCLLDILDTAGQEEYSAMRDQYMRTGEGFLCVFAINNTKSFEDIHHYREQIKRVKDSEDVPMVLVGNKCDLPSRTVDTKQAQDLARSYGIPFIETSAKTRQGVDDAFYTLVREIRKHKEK
Experimental: 1. SOS1 Catalyzed Nucleotide Exchange Assay
GDP-loaded HIS-KRAS (G12D, aa 1-169) was pre-incubated with a compound in the presence of 10 nM GDP in a 384-well plate (Greiner) for 15 min, then purified SOS1 ExD (Flag tag, aa 564-1049), BODIPY™ FL GTP (Invitrogen) and MAb (monoclonal antibody) Anti 6HIS-Tb cryptate Gold (Cisbio) were added to the assay wells (Final concentration: 1.5 nM GDP-loaded HIS-KRAS (G12D), 5 nM GDP, 0.5 μM SOS1 ExD, 80 nM BODIPY™ FL GTP, 52.5 ng/mL MAb Anti 6HIS-Tb cryptate Gold) and incubated for 4 hours at 25° C. Wells containing same percent of DMSO served as vehicle control, and wells without KRAS served as low control. TR-FRET signals were read on Tecan Spark multimode microplate reader. The parameters were F486: Excitation 340 nm, Emission 486 nm, Lag time 100 μs, Integration time 200 μs; F515: Excitation 340 nm, Emission 515 nm, Lag time 100 μs, Integration time 200 μs. TR-FRET ratios for each individual wells were calculated by equation: TR-FRET ratio=(Signal F515/Signal F486)*10000. The percent of activation of compounds treated wells were normalized between vehicle control and low control (% Activation=(TR-FRET ratioCompound treated−TR-FRET ratioLow control)/(TR-FRET ratioVehicle control−TR-FRET ratioLow control)*100%). Then the data were analyzed either by fitting a 4-parameter logistic model or by Excel to calculate IC50 values.

AsPC-1 = experiment: Cell growth inhibition assay (AsPC-1); format: cell-based; conditions: AsPC-1, 6 days incubation, CellTiter-Glo
Experimental: (§1) 4. Cell Growth Inhibition Assay
AsPC-1 cultured in RPMI-1640 medium (Gibco) containing 10% fetal bovine serum (Gibco). Cells in culture medium were plated in 96-well plates at a concentration of 1000 cells/well ([…]) and allowed to attach overnight.
(§2) The next day, compounds were diluted in culture medium and added to the plates. After 6 days incubation in a 37° C./5% CO2 cell incubator, the cell viability was detected by CellTiter-Glo® Luminescent Cell Viability Assay kit (Promega). Luminescent signals were read on Tecan Spark multimode microplate reader and analyzed using a 4-parameter logistic model to calculate IC50 values.

AGS = experiment: Cell growth inhibition assay (AGS); format: cell-based; conditions: 6 days incubation, CellTiter-Glo
Experimental: as §1
AGS cultured in F12K medium (Gibco) containing 10% fetal bovine serum (Gibco). Cells in culture medium were plated in 96-well plates at a concentration of 500 cells/well ([…]) and allowed to attach overnight.
as §2

[3] = system: AGS cells expressing KRAS G12D; experiment: Phospho-ERK1/2(THR202/TYR204) HTRF assay; format: cell-based; conditions: 2 hours incubation, read-out: AGS p-ERK IC50
Experimental: AGS cells expressing KRAS G12D were cultured in F12K medium (Gibco) containing 10% fetal bovine serum (Gibco). The AGS cells in culture medium were seeded in 96-well plates at a concentration of 40,000 cells/well and then put in a 37° C./5% CO2 cell incubator to incubate overnight. The next day, culture medium was removed and the compound diluted in assay medium (F12K, 0.1% FBS) was added in each well. After 2 hours incubation in a 37° C./5% CO2 cell incubator, the assay medium in 96-well plates was removed, then 50 μL of 1× blocking reagent-supplemented lysis buffer (Cisbio) was added and the plates were incubated at 25° C. for 45 min with shaking. 10 μL of cell lysates from the 96-well plates were transferred to a 384-well plate (Greiner) containing 2.5 μL/well HTRF® pre-mixed antibodies (Cisbio 64AERPEH). Incubate 4 hours at 25° C. and then read HTRF signals on Tecan Spark multimode microplate reader. The data were analyzed using a 4-parameter logistic model to calculate IC50 values.

T1 sequence (P01116 1-169 isoform P01116-2 G12D): as above

Structure (SMILES)	IC50 [1]	IC50 [2]	other results
C#Cc1cccc2cc(O)cc(-c3ccc4c(N5CCNCC5CC#N)nc(OCC5(CN6CCOCC6)CC5)nc4c3F)c12 (racemic) [Compound 134]	760 nM	117 nM	–
C#Cc1cccc2cc(O)cc(-c3c(Cl)cc4c(N5CC6CCC(C5)N6)nc(OCC5(CN6CCOCC6)CC5)nc4c3F)c12 (single isomer, unassigned) [Compound 35A]	–	651 nM	–
C#Cc1cccc2cc(O)cc(-c3c(Cl)cc4c(N5CC6CCC(C5)N6)nc(OCC5(CN6CCOCC6)CC5)nc4c3F)c12 (single isomer, unassigned) [Compound 35B]	111 nM	5.94 nM	IC50 (AsPC-1): 39.5 nM; IC50 (AGS): 13.4 nM; IC50 [3]: 6.2 nM
C#Cc1cccc2cc(O)cc(-c3c(C4CC4)cc4c(N5CC6CCC(C5)N6)nc(OCC5(CN6CCOCC6)CC5)nc4c3F)c12 (single isomer, unassigned) [Compound 38A]	8300 nM	~1000 nM	–
C#Cc1cccc2cc(O)cc(-c3c(C4CC4)cc4c(N5CC6CCC(C5)N6)nc(OCC5(CN6CCOCC6)CC5)nc4c3F)c12 (single isomer, unassigned) [Compound 38B]	13.2 nM	0.727 nM	IC50 (AsPC-1): 158 nM; IC50 (AGS): 10.5 nM; IC50 [3]: 12.4 nM
C#Cc1cccc2cc(O)cc(-c3c(C)cc4c(N5CC6CCC(C5)N6)nc(OCC5(CN6CCOCC6)CC5)nc4c3F)c12 (single isomer, unassigned) [Compound 40A]	1610 nM	92.1 nM	–
C#Cc1cccc2cc(O)cc(-c3c(C)cc4c(N5CC6CCC(C5)N6)nc(OCC5(CN6CCOCC6)CC5)nc4c3F)c12 (single isomer, unassigned) [Compound 40B]	22.4 nM	0.824 nM	IC50 (AsPC-1): 45.8 nM; IC50 (AGS): 4.92 nM; IC50 [3]: 1.97 nM
C#Cc1cccc2cc(O)cc(-c3c(F)cc4c(N5CC6CCC(C5)N6)nc(OCC5(CN6CCOCC6)CC5)nc4c3F)c12 (single isomer, unassigned) [Compound 41A]	417 nM	120 nM	–
C#Cc1cccc2cc(O)cc(-c3c(SC(F)(F)F)cc4c(N5CC6CCC(C5)N6)nc(OCC5(CN6CCOCC6)CC5)nc4c3F)c12 (single isomer, unassigned) [Compound 59A]	> 1000 nM	> 100 nM	–
C#Cc1cccc2cc(O)cc(-c3c(C#N)cc4c(N5CC6CCC(C5)N6)nc(OCC5(CN6CCOCC6)CC5)nc4c3F)c12 (single isomer, unassigned) [Compound 60A]	7690 nM	766 nM	–
C#Cc1cccc2cc(O)cc(-c3c(Cl)cc4c(N5CC6CCC(C5)N6)nc(OC[C@@]56CCCN5C[C@H](F)C6)nc4c3F)c12 (single isomer, unassigned) [Compound 72A]	1480 nM	85.9 nM	–
C#Cc1c(F)ccc2cc(O)cc(-c3c(Cl)cc4c(N5CC6CCC(C5)N6)nc(OCC5(CN6CCOCC6)CC5)nc4c3F)c12 (single isomer, unassigned) [Compound 99A]	2070 nM	101 nM	–
C#Cc1c(F)ccc2cc(O)cc(-c3c(Cl)cc4c(N5CC6CCC(C5)N6)nc(OCC5(CN6CCOCC6)CC5)nc4c3F)c12 (single isomer, unassigned) [Compound 99B]	13.5 nM	0.403 nM	–
C#Cc1cccc2cc(O)cc(-c3c(Cl)cc4c(N5CC6CCC(C5)N6)nc(OCC5(CN6CCOCC6)CC5)nc4c3Cl)c12 (single isomer, unassigned) [Compound 107A]	> 10000 nM	783 nM	–
CCc1cccc2cc(O)cc(-c3c(Cl)cc4c(N5CC6CCC(C5)N6)nc(OCC5(CN6CCOCC6)CC5)nc4c3F)c12 [Compound 36]	–	32.8 nM	–
Oc1cc(-c2c(Cl)cc3c(N4CC5CCC(C4)N5)nc(OCC4(CN5CCOCC5)CC4)nc3c2F)c2c(Cl)cccc2c1 [Compound 37]	–	51.4 nM	–
CCc1cccc2cc(O)cc(-c3c(C4CC4)cc4c(N5CC6CCC(C5)N6)nc(OCC5(CN6CCOCC6)CC5)nc4c3F)c12 [Compound 39]	1410 nM	322 nM	–
Oc1cc(-c2ccc3c(N4CC5CCC(C4)N5)nc(OCC4(CN5CCOCC5)CC4)nc3c2F)c2cccc(F)c2c1 [Compound 50]	1110 nM	56.9 nM	IC50 ([3]; Homo sapiens): 441 nM
Oc1cc(-c2c(Cl)cc3c(N4CC5CCC(C4)N5)nc(OCC4(CN5CCOCC5)CC4)nc3c2F)c2c(F)cccc2c1 [Compound 53]	853 nM	57.1 nM	IC50 ([3]; Homo sapiens): 99.6 nM
C#Cc1cccc2cc(O)cc(-c3ccc4c(N5C[C@H]6C[C@@H]5CN6)nc(OCC5(CN6CCOCC6)CC5)nc4c3F)c12 [Compound 54]	356 nM	89.8 nM	–
C#Cc1cccc2cc(O)cc(-c3ccc4c(N5C6CNCC5C6)nc(OCC5(CN6CCOCC6)CC5)nc4c3F)c12 [Compound 56]	1910 nM	146 nM	–
C#Cc1cccc2cc(O)cc(-c3ccc4c(N5CCNC[C@H]5C)nc(OC[C@@]56CCCN5C[C@H](F)C6)nc4c3F)c12 [Compound 69]	781 nM	25.1 nM	IC50 (AsPC-1; Homo sapiens, ASPC1, 144 h): 1070 nM
C#Cc1cccc2cc(O)cc(-c3ccc4c(N5C6CCC5CNC6)nc(OC[C@@]56CCCN5C[C@H](F)C6)nc4c3F)c12 [Compound 70]	59.1 nM	8.43 nM	IC50 (AsPC-1; Homo sapiens, ASPC1, 144 h): 140 nM
C#Cc1cccc2cc(O)cc(-c3ccc4c(N5CCNC[C@H]5C)nc(OCC5(CN6CCOCC6)CC5)nc4c3F)c12 [Compound 82]	> 1000 nM	–	–
Oc1cc(Cl)c(C(F)(F)F)c(-c2c(Cl)cc3c(N4CC5CCC(C4)N5)nc(OC[C@@]45CCCN4C[C@H](F)C5)nc3c2F)c1 [Compound 84]	325 nM	35.4 nM	–
Oc1cc(Cl)c(C(F)(F)F)c(-c2ccc3c(N4CC5CCC(C4)N5)nc(OC[C@@]45CCCN4C[C@H](F)C5)nc3c2F)c1 [Compound 85]	2210 nM	69.1 nM	–
Oc1cc(-c2c(Cl)cc3c(N4CC5CCC(C4)N5)nc(OCC4(CN5CCOCC5)CC4)nc3c2F)c2cccc(F)c2c1 [Compound 92]	3960 nM	152 nM	–
C#Cc1c(F)ccc2cccc(-c3ccc4c(N5CC6CCC(C5)N6)nc(OCC5(CN6CCOCC6)CC5)nc4c3F)c12 [Compound 93]	2180 nM	93.2 nM	–
C#Cc1cccc2cc(O)cc(-c3ccc4c(N5[C@H]6CN[C@H](C6)[C@H]5CC#N)nc(OCC5(CN6CCOCC6)CC5)nc4c3F)c12 [Compound 128]	519 nM	> 100 nM	–
